Consider one molecule from patent US9675591B2, “Methods for treating seizure disorders and pain” (THE REGENTS OF THE UNIVERSITY OF CALIFORNIA, priority 2013, dated 2017).

“And” between values parts separate entries of the source, which are not always exact repeats. Identical values can stand only once. Like-named read-outs stand apart in the source and are kept apart here.

Data set [1] has as its system 6-Hz psychomotor seizures. As to the kind of experiment: 6-Hz psychomotor seizure test (ASP). Format: in vivo, mice. Conditions: for ED50: Mus musculus, ip, mice. As for the experimental part:
Seizures characterized by a minimal clonic phase followed by stereotyped automatistic behaviors (jaw chomping and whisker movement) were induced in mice by a low frequency (6 Hz), long-duration (3 s) stimulus. These seizures resemble automatistic behavior in patients with complex partial seizures. At varying times (0.25, 0.5, 1, 2, and 4 h) after drug treatment, individual mice (four at each time point) were challenged with sufficient current (32 or 44 mA at 6 Hz for 3 s) delivered through corneal electrodes to elicit a psychomotor seizure. Animals not displaying this behavior are considered protected.

Another data set has as its system formalin-induced pain. The experiment in a line: Formalin pain assay. Format: in vivo, mice. The following applies: 5 mg/kg. As for the experimental part:
SKA-19 was administered at a dose of 5 mg/kg to CF-1 male mice. At the previously determined time of peak anticonvulsant effect 0.5% formalin was injected sub-dermally into the plantar surface of the right hind foot. For each animal the amount of time (s) spent licking the affected hind paw in a two minute period was recorded at 5 minute intervals and continued for 45 minutes through both the acute and inflammatory phase.

For another data set, the system named is rats. As to the kind of experiment: Acute toxicity, neurological status of rats (positional sense, muscle tone, gait and stance). It counts as in vivo. As for the experimental part: (§1) Abnormal neurological status in rats was evaluated by the positional sense test, the muscle tone test, and the gait and stance test. Inability of the rat to perform normally in at least two of these tests is taken as an indication of some neurological deficit.

Experiment in data set [2]: as above
It counts as in vivo. Conditions: Sprague-Dawley, rat, in vivo, rats. On the procedure: as §1

A further data set concerns the target KCa2.2 (SK2) (Rattus norvegicus, UniProt P70604). As to the kind of experiment: Whole-cell patch-clamp, KCa2.2. It counts as cell-based, human. The following applies: 250 nM free intracellular Ca2+. On the procedure: HEK-293 or COS-7 cells stably expressing hKCa2.1, rKCa2.2, and hKCa2.3 have been described previously (Sankaranarayanan et al., 2009). Cells were held at −80 mV and KCa currents elicited by dialysis with a K^+ aspartate based internal containing 250 nM free Ca^2+ (pH 7.2, 290 mOsm, pipette resistance 1.5 MΩ). To reduce currents from native chloride channels, Na^+ aspartate Ringer was used as an external solution. KCa2 currents were recorded with 200-ms voltage ramps from −120 to +40 mV applied every 10 s, and the fold increase of slope conductance at −80 mV by drug was taken as a measure of channel activation. Data analysis, fitting, and plotting were performed with IGOR-Pro (Wavemetrics, Lake Oswego, Oreg., USA) and Origin 9.0 (OriginLab, Northampton, Mass., USA).

Another data set has as its target Nav1.2 (Mus musculus (Mouse), UniProt B1AWN6). The experiment in a line: Voltage-clamp, Nav1.2 currents in N1E-115 neuroblastoma cells. Format: cell-based. As for the experimental part: All experiments were conducted at room temperature (22-24° C.) with an EPC-10 amplifier and Pulse software (HEKA, Lambrecht/Pfalz, Germany) in the whole-cell mode of the patch-clamp technique. Human embryonic kidney (HEK)-293 cell lines stably expressing hNav1.1, hNav1.5, hNav1.7 channels (generously provided by Dr. Christopher Lossin, University of California Davis), hNav1.4 (Frank Lehmann-Horn, University of Ulm), or hKv2.1 channels (James Trimmer, University of California Davis) were bathed in extracellular solution containing (in mM): 160 NaCl; 4.5 KCl; 1 MgCl2; 2 CaCl2; 10 HEPES [pH was adjusted to 7.4 using NaOH (310 mOsm)]. Pipettes were filled with intracellular solution containing (in mM): 145 KF; 2 MgCl2; 10 ethylene glycol tetraacetic acid; 10 HEPES (pH adjusted to 7.2 with KOH; 300 mOsm). Neuroblastoma N1E-115 cells (ATCC, Manassa, Va., USA) expressing Nav1.2 were patched with a CsF internal solution consisting of (in mM): 10 NaF; 110 CsF; 20 CsCl; 2 ethylene glycol tetraacetic acid; 10 HEPES (CsOH to pH 7.35; 300 mOsm). All pipette tip resistances were 2-4 MΩ. Series resistances of 3-10 MΩ were compensated 40-80%. All cells were voltage-clamped to a holding potential of −90 mV unless otherwise specified. The sampling frequency was 5 kHz. Na^+ currents were elicited by 30-ms pulse to 0 mV from −90 mV applied every 10 s. Kv2.1 currents were elicited by 200-ms voltage steps from −90 to 40 mV applied every 10 s.

Nav1.2, sequence (B1AWN6 whole entry): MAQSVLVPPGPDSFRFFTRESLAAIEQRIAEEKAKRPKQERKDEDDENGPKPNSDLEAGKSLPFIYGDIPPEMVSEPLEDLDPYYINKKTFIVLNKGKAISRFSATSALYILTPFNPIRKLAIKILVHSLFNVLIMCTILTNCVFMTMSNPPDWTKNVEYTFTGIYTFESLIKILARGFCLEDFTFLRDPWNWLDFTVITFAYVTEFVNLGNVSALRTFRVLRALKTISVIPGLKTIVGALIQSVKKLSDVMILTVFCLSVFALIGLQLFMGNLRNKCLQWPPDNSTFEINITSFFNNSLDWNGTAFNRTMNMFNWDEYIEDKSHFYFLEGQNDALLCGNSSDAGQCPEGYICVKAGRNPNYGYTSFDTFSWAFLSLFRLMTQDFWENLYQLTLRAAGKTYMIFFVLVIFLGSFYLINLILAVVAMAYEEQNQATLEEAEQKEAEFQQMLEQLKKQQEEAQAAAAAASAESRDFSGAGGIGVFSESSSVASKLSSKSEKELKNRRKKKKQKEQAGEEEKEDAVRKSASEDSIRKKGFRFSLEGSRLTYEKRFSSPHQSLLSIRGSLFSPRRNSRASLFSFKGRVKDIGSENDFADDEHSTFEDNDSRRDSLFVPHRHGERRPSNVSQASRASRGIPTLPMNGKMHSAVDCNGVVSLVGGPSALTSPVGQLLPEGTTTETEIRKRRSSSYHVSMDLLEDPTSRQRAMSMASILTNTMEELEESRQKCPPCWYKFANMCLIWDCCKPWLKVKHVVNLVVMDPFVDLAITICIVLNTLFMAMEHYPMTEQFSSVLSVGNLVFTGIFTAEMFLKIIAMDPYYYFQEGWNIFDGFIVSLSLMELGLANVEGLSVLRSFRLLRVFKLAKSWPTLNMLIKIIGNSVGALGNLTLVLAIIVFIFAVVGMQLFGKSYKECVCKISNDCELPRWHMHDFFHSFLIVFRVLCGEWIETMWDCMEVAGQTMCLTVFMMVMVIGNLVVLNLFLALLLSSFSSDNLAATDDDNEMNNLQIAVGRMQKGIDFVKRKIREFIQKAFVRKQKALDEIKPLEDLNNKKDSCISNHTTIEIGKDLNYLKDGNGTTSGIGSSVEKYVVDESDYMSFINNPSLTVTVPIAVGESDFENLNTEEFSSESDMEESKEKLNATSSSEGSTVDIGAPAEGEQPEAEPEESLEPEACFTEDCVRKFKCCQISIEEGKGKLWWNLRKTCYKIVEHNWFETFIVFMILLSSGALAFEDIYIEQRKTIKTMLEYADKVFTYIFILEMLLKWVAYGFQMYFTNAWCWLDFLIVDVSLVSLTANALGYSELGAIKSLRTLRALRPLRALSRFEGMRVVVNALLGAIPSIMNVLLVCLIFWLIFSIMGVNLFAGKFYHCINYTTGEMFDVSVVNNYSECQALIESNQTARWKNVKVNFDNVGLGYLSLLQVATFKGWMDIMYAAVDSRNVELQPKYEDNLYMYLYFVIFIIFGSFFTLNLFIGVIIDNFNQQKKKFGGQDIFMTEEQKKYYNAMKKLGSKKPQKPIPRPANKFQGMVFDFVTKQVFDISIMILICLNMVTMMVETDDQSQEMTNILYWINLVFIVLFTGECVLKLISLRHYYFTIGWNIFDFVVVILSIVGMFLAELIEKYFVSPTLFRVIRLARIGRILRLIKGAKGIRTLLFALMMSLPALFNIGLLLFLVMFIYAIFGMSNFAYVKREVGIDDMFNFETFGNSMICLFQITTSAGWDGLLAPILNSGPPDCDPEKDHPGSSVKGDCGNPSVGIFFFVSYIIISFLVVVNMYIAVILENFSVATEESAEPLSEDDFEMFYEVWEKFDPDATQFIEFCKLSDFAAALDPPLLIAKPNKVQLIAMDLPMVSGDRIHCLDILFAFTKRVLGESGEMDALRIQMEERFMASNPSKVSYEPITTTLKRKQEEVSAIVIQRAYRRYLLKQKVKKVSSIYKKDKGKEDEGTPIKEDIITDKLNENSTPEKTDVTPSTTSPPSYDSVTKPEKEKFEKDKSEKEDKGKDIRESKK

As for `Nc1nc2ccc(SC(F)(F)F)cc2s1` [SKA-19, 6-((trifluoromethyl)thio)benzo[d]thiazol-2-amine], the “protection in 6-Hz test, initial screen” value was “partial protection” in data set [1] (10 mg/kg i.p., all other tested time points) and “full protection (4 out of 4 animals)” in data set [1] (2 hours after i.p. 10 mg/kg). In addition, the 50% effective dose (ED50) in data set [1] (2 h, 32 mA) worked out at 12.2 mg/kg; in data set [1] (current intensity 44 mA), 28.1 mg/kg. In addition, in the data set on formalin-induced pain (2 hours prior to formalin), the “reduction of paw licking (area under curve), Phase II” value was 31.3%. The “reduction of total paw licking (area under curve), Phase I” value in the data set with formalin-induced pain (2 hours prior to formalin) was 54.5%. Besides, the “time spent licking the affected hindpaw” value in the data set on formalin-induced pain (2 h prior to formalin) was “significantly decreased”. Further, the deaths entry in the data set with rats (rat, in vivo) is recorded as “No deaths”. For the same molecule, the neurotoxicity result with rats (rats, oral 30 mg/kg, 0.25-4 h) is listed as “without inducing neurotoxicity”. Besides, the TD50 in data set [2] (ip) worked out at 14.3 mg/kg. Moreover, the TD50 at 1 h in data set [2] (ip) came out at 14.3 mg/kg. The molecule further gave a TD50 at 4 h in data set [2] (oral) of 77.4 mg/kg. For the same molecule, the EC50 at KCa2.2 (SK2) (read-out: EC50 or IC50, KCa2.2) came out at 14 µM. Moreover, the “maximal increase of KCa2 currents” value at KCa2.2 (SK2) (stated for KCa2 currents) came out at 30 fold. The 50% inhibitory concentration (IC50) is 0.52 ± 0.23 µM on Nav1.2 (20 Hz, read-out: IC50, Nav1.2); 0.86 ± 0.7 µM on Nav1.2 (-70 mV holding potential, read-out: IC50, Nav1.2); 9.5 ± 1.72 µM on Nav1.2 (-120 mV holding potential, read-out: IC50, Nav1.2); 0.86 µM on Nav1.2 (changed holding potential, read-out: IC50, Nav1.2); ~7.9 µM and 7.9 µM at Nav1.2 (holding potential -90 mV, 0.1 Hz, read-out: EC50 or IC50, Nav1.2); 0.52 µM on Nav1.2 (pulse frequency 20 Hz, read-out: IC50, Nav1.2).
